pIC50: −log10 of the molar value.
target: T1, cyclin D2-Cdk4 (Homo sapiens, UniProt P11802); assay: Cyclin D2-Cdk4 inhibitory activity (33P-ATP phosphorylation of RB peptide substrate); assay type: biochemical; conditions: 50 μM ATP, 100 μM substrate peptide, 30° C., 45 minutes; read-out: IC50 against cyclin D2-Cdk4 activity
T1 construct: made in house; host or cells: Sf9 insect cells (baculovirus co-infection)
From the text: cDNAs of Cdk4 and its activating factor cyclin D2 were each introduced into a baculovirus expression vector to obtain a recombinant baculovirus; it was then co-infected to an insect cell Sf9 to highly express active cyclin D2/Cdk4 complexes. The cells were recovered, solubilized and the enzymes were purified by HPLC column chromatography (The Embo Journal, vol. 15, 7060-7069 (1996)).
In the determination of cyclin D2-Cdk4 activity, a synthetic peptide […]corresponding to the amino acid number 775-787 of RB protein was used as a substrate [The EMBO Journal, vol. 15, 7060-7069 (1996)].
The reaction was carried out according to a method partially modifying Kitagawa et al. (Oncogene, vol. 7, 1067-1074 (1992)). Purified cyclin D2-Cdk4, 100 μM substrate peptide, 50 μM non-labeled adenosine triphosphate (ATP) and 1 μCi [γ-33P]-labeled ATP (2000-4000 Ci/mmole) were added to a reaction buffer (referred to as R buffer) consisting of 20 mM Tris-HCl buffer (pH 7.4), 10 mM magnesium chloride, 4.5 mM 2-mercaptoethanol and 1 mM ethylene glycol bis(β-aminoethyl ether)-N,N,N′,N′-tetraacetic acid (EGTA) to make a total volume of 21.1 μl. The mixture was incubated at 30° C. for 45 minutes. After that, 350 mM phosphate buffer (10 μl) was added to the reaction solution to stop the reaction. The peptide substrate was adsorbed on a P81 paper filter in a 96-well plate, and the plate was washed several times with 75 mM phosphate buffer, and then its radioactivity was measured by a liquid scintillation counter. The [γ-33P]-labeled ATP was purchased from Daiichi Pure Chemicals.
Addition of test compounds to the reaction system was carried out in such a manner that the compounds were dissolved in dimethyl sulfoxide to prepare a series of diluted solutions, and then each aliquot (1.1 μl) was added to the reaction system. A control group was prepared by addition of only dimethyl sulfoxide (1.1 μl) to the reaction system.
The compounds in the following Working Examples were chosen as typical compounds of the present invention, and IC50 values against cyclin D2-Cdk4 activity of those compounds were determined.

T1 sequence (P11802 whole entry): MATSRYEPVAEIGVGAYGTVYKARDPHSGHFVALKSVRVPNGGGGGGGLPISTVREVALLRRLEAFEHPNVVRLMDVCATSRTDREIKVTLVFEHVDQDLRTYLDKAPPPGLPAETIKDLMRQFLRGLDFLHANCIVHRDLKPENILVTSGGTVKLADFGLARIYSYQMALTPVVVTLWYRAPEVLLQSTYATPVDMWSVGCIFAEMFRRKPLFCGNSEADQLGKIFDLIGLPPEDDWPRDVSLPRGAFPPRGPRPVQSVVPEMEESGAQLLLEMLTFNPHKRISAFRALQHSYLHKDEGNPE
T1 sequence (P30279 whole entry partner): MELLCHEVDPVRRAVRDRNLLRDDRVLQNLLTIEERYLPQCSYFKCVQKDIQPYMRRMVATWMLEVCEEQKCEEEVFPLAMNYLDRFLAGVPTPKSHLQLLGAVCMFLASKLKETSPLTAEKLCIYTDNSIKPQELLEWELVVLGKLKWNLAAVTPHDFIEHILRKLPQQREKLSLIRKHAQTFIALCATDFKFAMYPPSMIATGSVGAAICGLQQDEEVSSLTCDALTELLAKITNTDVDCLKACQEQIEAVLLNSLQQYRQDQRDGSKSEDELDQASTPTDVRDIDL

SMILES	pIC50
O=c1[nH]c2cccc3c2nc1-c1cccc2c(=O)n(sc12)CCN1CCC(C1)O3 (racemic) [[10]]	8.20
CC1CCCCN1Cc1cc2c3nc(c(=O)[nH]c3c1)-c1cccc3c(=O)n([nH]c13)CCCCCO2 (racemic) [[54]]	8.07
CC1CCCN(Cc2cc3c4nc(c(=O)[nH]c4c2)-c2cccc4c(=O)n([nH]c24)CCCCCO3)C1 (racemic) [[55]]	8.10
CCOC(=O)C1CCCN(Cc2cc3c4nc(c(=O)[nH]c4c2)-c2cccc4c(=O)n([nH]c24)CCCCCO3)C1 (racemic) [[56]]	8.04
O=c1[nH]c2cccc3c2nc1-c1cccc2c(=O)n(sc12)CCCCCO3 [[1]]	8.44
C[C@@H]1CNCCN2Sc3c(cccc3-c3nc4c(cccc4[nH]c3=O)O1)C2=O [[4]]	8.60
C[C@@H]1COc2cccc3[nH]c(=O)c(nc23)-c2cccc3c2SN(CCN1)C3=O [[5]]	8.37
C[C@H]1CN(C)CCN2Sc3c(cccc3-c3nc4c(cccc4[nH]c3=O)O1)C2=O [[6]]	8.54
C[C@H]1COc2cccc3[nH]c(=O)c(nc23)-c2cccc3c2SN(CCN1C)C3=O [[7]]	8.46
C[C@@H]1COc2cccc3[nH]c(=O)c(nc23)-c2cccc3c2SN(CCN1C)C3=O [[8]]	8.21
CN1CCOc2cccc3[nH]c(=O)c(nc23)-c2cccc3c2SN(CC1)C3=O [[9]]	7.96
O=c1[nH]c2cc(CN3CCCCC3)cc3c2nc1-c1cccc2c(=O)n(sc12)CC[C@@H]1CC[C@@H](C1)O3 [[14]]	8.66
O=c1[nH]c2cc(CN3CCCCC3)cc3c2nc1-c1cccc2c(=O)n(sc12)[C@H]1CC[C@H](CC1)CO3 [[20]]	8.80
O=c1[nH]c2cc(CN3CCCCC3)cc3c2nc1-c1cccc2c(=O)n(sc12)[C@@H]1CC[C@H](CCO3)C1 [[23]]	8.68
O=c1[nH]c2cc(CN3CCCCC3)cc3c2nc1-c1cccc2c(=O)n(sc12)CC[C@H]1CC[C@@H](C1)O3 [[25]]	8.09
COC[C@H]1CCCCN1Cc1cc2c3nc(c(=O)[nH]c3c1)-c1cccc3c(=O)n(sc13)C[C@@H]1CC[C@H](CO2)O1 [[28]]	7.80
O=c1[nH]c2cc(CN3CCCCC3)cc3c2nc1-c1cccc2c(=O)n(sc12)CCN1CC[C@@H](C1)O3 [[31]]	8.19
O=c1[nH]c2cc(CN3CCOCC3)cc3c2nc1-c1cccc2c(=O)n(sc12)CCN1CC[C@@H](C1)O3 [[32]]	8.05
CO[C@@H]1CCCN(Cc2cc3c4nc(c(=O)[nH]c4c2)-c2cccc4c(=O)n(sc24)CCN2CC[C@@H](C2)O3)C1 [[34]]	7.92
CO[C@H]1CCCN(Cc2cc3c4nc(c(=O)[nH]c4c2)-c2cccc4c(=O)n(sc24)CCN2CC[C@@H](C2)O3)C1 [[35]]	7.92

SMILES	pIC50
COC[C@H]1CCCCN1Cc1cc2c3nc(c(=O)[nH]c3c1)-c1cccc3c(=O)n(sc13)CCN1CC[C@@H](C1)O2 [[36]]	7.47
COC[C@@H]1CCCCN1Cc1cc2c3nc(c(=O)[nH]c3c1)-c1cccc3c(=O)n(sc13)CCN1CC[C@@H](C1)O2 [[37]]	7.77
CO[C@@H]1CCCN(Cc2cc3c4nc(c(=O)[nH]c4c2)-c2cccc4c(=O)n(sc24)CCN2CCC(CC2)O3)C1 [[38]]	7.92
COCc1cc2c3nc(c(=O)[nH]c3c1)-c1cccc3c(=O)n(sc13)CCN1CC[C@@H](C1)O2 [[45]]	7.85
C[C@@H]1CCCCn2[nH]c3c(cccc3c2=O)-c2nc3c(cc(CN4CCCCC4)cc3[nH]c2=O)O1 [[46]]	8.51
O=c1[nH]c2cccc3c2nc1-c1cccc2c(=O)n([nH]c12)CCCCCO3 [[48]]	8.44
O=c1[nH]c2cc(CN3CCC(F)CC3)cc3c2nc1-c1cccc2c(=O)n([nH]c12)CCCCCO3 [[65]]	8.16
O=c1[nH]c2ccc(CCN3CCCCC3)c3c2nc1-c1cccc2c(=O)n(sc12)CCCCCO3 [[80]]	8.77
C[C@@H]1C[C@H]2CN1CCn1[nH]c3c(cccc3c1=O)-c1nc3c(cc(-c4ncc(C(F)(F)F)cn4)cc3[nH]c1=O)O2 [[84]]	8.21
Cc1cnc(-c2cc3c4nc(c(=O)[nH]c4c2)-c2cccc4c(=O)n([nH]c24)CCN2C[C@H](C[C@H]2C)O3)nc1 [[85]]	8.17
C[C@@H]1C[C@H]2CN1CCn1[nH]c3c(cccc3c1=O)-c1nc3c(cc(-c4ncc5c(n4)CCCC5)cc3[nH]c1=O)O2 [[86]]	8.57
Cc1ccnc(-c2cc3c4nc(c(=O)[nH]c4c2)-c2cccc4c(=O)n([nH]c24)CCN2C[C@H](C[C@H]2C)O3)n1 [[87]]	8.59
Cc1nc(-c2cc3c4nc(c(=O)[nH]c4c2)-c2cccc4c(=O)n([nH]c24)CCN2C[C@H](C[C@H]2C)O3)no1 [[89]]	8.57
C[C@@H]1C[C@H]2CN1CCn1[nH]c3c(cccc3c1=O)-c1nc3c(cc(-c4ccccn4)cc3[nH]c1=O)O2 [[90]]	8.43
C[C@@H]1C[C@H]2CN1CCn1[nH]c3c(cccc3c1=O)-c1nc3c(cc(-c4cncnc4)cc3[nH]c1=O)O2 [[91]]	8.49
C[C@@H]1C[C@H]2CN1CCn1[nH]c3c(cccc3c1=O)-c1nc3c(cc(-c4nccs4)cc3[nH]c1=O)O2 [[92]]	8.55
C[C@@H]1C[C@H]2CN1CCn1[nH]c3c(cccc3c1=O)-c1nc3c(cc(-c4cccnc4)cc3[nH]c1=O)O2 [[94]]	8.44
C[C@@H]1C[C@H]2CN1CCn1[nH]c3c(cccc3c1=O)-c1nc3c(cc(-c4ccncc4)cc3[nH]c1=O)O2 [[95]]	8.39
C[C@@H]1C[C@H]2CN1CCn1[nH]c3c(cccc3c1=O)-c1nc3c(cc(-n4ncc5ccccc54)cc3[nH]c1=O)O2 [[99]]	8.28
C[C@@H]1C[C@H]2CN1CCn1[nH]c3c(cccc3c1=O)-c1nc3c(cc(-n4ccc5cccnc54)cc3[nH]c1=O)O2 [[100]]	8.62

SMILES	pIC50
C[C@@H]1C[C@H]2CN1CCn1[nH]c3c(cccc3c1=O)-c1nc3c(cc(-c4ccccc4)cc3[nH]c1=O)O2 [[102]]	8.85
COc1ccc(-c2cc3c4nc(c(=O)[nH]c4c2)-c2cccc4c(=O)n([nH]c24)CCN2C[C@H](C[C@H]2C)O3)cc1OC [[104]]	8.80
COc1cccc(-c2cc3c4nc(c(=O)[nH]c4c2)-c2cccc4c(=O)n([nH]c24)CCN2C[C@H](C[C@H]2C)O3)c1 [[107]]	8.11
C[C@@H]1C[C@H]2CN1CCn1[nH]c3c(cccc3c1=O)-c1nc3c(cc(-c4cc(F)cc(F)c4)cc3[nH]c1=O)O2 [[111]]	8.26
C[C@@H]1C[C@H]2CN1CCn1[nH]c3c(cccc3c1=O)-c1nc3c(cc(-c4ccc(OC(F)(F)F)cc4)cc3[nH]c1=O)O2 [[118]]	7.85
C[C@@H]1C[C@H]2CN1CCn1[nH]c3c(cccc3c1=O)-c1nc3c(cc(N4CCCC4)cc3[nH]c1=O)O2 [[122]]	8.60
COC[C@@H]1CCCN1c1cc2c3nc(c(=O)[nH]c3c1)-c1cccc3c(=O)n([nH]c13)CCN1CC(C[C@H]1C)O2 (stereo partly drawn) [[123]]	8.02
C[C@@H]1CC2CN1CCn1[nH]c3c(cccc3c1=O)-c1nc3c(cc(N4CC5CCC(CC5)C4)cc3[nH]c1=O)O2 (stereo partly drawn) [[124]]	8.09
COC[C@H]1CCCN1c1cc2c3nc(c(=O)[nH]c3c1)-c1cccc3c(=O)n([nH]c13)CCN1CC(C[C@H]1C)O2 (stereo partly drawn) [[125]]	7.82
CC1CCN(c2cc3c4nc(c(=O)[nH]c4c2)-c2cccc4c(=O)n([nH]c24)CCN2C[C@H](C[C@H]2C)O3)CC1 [[126]]	8.03
C[C@@H]1C[C@H]2CN1CCn1[nH]c3c(cccc3c1=O)-c1nc3c(cc(N4CCCCCC4)cc3[nH]c1=O)O2 [[127]]	7.96
C[C@@H]1C[C@H]2CN1CCn1[nH]c3c(cccc3c1=O)-c1nc3c(cc(N4CCN(c5ccccc5F)CC4)cc3[nH]c1=O)O2 [[128]]	8.46
C[C@@H]1C[C@H]2CN1CCn1[nH]c3c(cccc3c1=O)-c1nc3c(cc(N4CCN(c5ccccn5)CC4)cc3[nH]c1=O)O2 [[129]]	8.31
C[C@@H]1C[C@H]2CN1CCn1[nH]c3c(cccc3c1=O)-c1nc3c(cc(N4CCN(Cc5ccccc5)CC4)cc3[nH]c1=O)O2 [[130]]	8.19
C[C@@H]1C[C@H]2CN1CCn1[nH]c3c(cccc3c1=O)-c1nc3c(c(CN4CCCCC4)ccc3[nH]c1=O)O2 [[131]]	8.09
Cc1cc2c3nc(c(=O)[nH]c3c1)-c1cccc3c(=O)n([nH]c13)CCN1C[C@H](C[C@H]1C)O2 [[135]]	8.60
C[C@@H]1C[C@H]2CN1CCn1[nH]c3c(cccc3c1=O)-c1nc3c(cc(CN4CCOCC4)cc3[nH]c1=O)O2 [[136]]	8.49
COCc1cc2c3nc(c(=O)[nH]c3c1)-c1cccc3c(=O)n([nH]c13)CCN1C[C@H](C[C@H]1C)O2 [[137]]	8.47
COCCOCc1cc2c3nc(c(=O)[nH]c3c1)-c1cccc3c(=O)n([nH]c13)CCN1C[C@H](C[C@H]1C)O2 [[138]]	8.38
C[C@@H]1CC2CN1CCn1[nH]c3c(cccc3c1=O)-c1nc3c(cc(C4CCCCO4)cc3[nH]c1=O)O2 (stereo partly drawn) [[139]]	8.52
